Our source for the Ki values is patent US10501461B2, “Tyrosine amide derivatives as Rho-kinase inhibitors” (CHIESI FARMACEUTICI S.P.A., priority 2017, dated 2019).

Where only a bound is given, the exact number is not on record here.

One assay addresses Rho kinase 2 (ROCK-II) (Homo sapiens, UniProt O75116). The experiment in a line: In vitro Rho kinase inhibitory activity assay (ADP-Glo), Rho kinase 2. The assay is classed as biochemical. Particulars: 10 μM ATP, 25° C., expressed as range of activity. How it is done: (§1) The effectiveness of compounds of the present invention to inhibit Rho kinase activity can be determined in a 10 μl assay containing 40 mM Tris pH7.5, 20 mM MgCl2 0.1 mg/ml BSA, 50 μM DTT and 2.5 μM peptide substrate (Myelin Basic Protein) using an ADP-Glo kit (Promega). Compounds were dissolved in DMSO such that the final concentration of DMSO was 1% in the assay. All reactions/incubations are performed at 25° C. Compound (2 ul) and either Rho kinase 1 or 2 (4 μl) were mixed and incubated for 30 mins. Reactions were initiated by addition of ATP (4 μl) such that the final concentration of ATP in the assay was 10 μM. After a 1 hour incubation 10 μl of ADP-Glo Reagent was added and after a further 45 minute incubation 20 ul of Kinase Detection Buffer was added and the mixture incubated for a further 30 minutes. The luminescent signal was measured on a luminometer. […] Compounds were tested in dose-response format and the inhibition of kinase activity was calculated at each concentration of compound. To determine the IC50 (concentration of compound required to inhibit 50% of the enzyme activity) data were fit to a plot of % inhibition vs Log10 compound concentration using a sigmoidal fit with a variable slope and fixing the maximum to 100% and the minimum to 0%. To determine the Ki values the Cheng-Prusoff equation was utilized (Ki=IC50/(1+[S]/Km).

The next assay concerns the target Rho kinase 1 (ROCK-I) (Homo sapiens, UniProt Q13464). The experiment in a line: In vitro Rho kinase inhibitory activity assay (ADP-Glo), Rho kinase 1. The assay is classed as biochemical. Particulars: 10 μM ATP, 25° C., expressed as range of activity. As for the experimental part: as §1

Rho kinase 1 (ROCK-I), sequence (Q13464 whole entry): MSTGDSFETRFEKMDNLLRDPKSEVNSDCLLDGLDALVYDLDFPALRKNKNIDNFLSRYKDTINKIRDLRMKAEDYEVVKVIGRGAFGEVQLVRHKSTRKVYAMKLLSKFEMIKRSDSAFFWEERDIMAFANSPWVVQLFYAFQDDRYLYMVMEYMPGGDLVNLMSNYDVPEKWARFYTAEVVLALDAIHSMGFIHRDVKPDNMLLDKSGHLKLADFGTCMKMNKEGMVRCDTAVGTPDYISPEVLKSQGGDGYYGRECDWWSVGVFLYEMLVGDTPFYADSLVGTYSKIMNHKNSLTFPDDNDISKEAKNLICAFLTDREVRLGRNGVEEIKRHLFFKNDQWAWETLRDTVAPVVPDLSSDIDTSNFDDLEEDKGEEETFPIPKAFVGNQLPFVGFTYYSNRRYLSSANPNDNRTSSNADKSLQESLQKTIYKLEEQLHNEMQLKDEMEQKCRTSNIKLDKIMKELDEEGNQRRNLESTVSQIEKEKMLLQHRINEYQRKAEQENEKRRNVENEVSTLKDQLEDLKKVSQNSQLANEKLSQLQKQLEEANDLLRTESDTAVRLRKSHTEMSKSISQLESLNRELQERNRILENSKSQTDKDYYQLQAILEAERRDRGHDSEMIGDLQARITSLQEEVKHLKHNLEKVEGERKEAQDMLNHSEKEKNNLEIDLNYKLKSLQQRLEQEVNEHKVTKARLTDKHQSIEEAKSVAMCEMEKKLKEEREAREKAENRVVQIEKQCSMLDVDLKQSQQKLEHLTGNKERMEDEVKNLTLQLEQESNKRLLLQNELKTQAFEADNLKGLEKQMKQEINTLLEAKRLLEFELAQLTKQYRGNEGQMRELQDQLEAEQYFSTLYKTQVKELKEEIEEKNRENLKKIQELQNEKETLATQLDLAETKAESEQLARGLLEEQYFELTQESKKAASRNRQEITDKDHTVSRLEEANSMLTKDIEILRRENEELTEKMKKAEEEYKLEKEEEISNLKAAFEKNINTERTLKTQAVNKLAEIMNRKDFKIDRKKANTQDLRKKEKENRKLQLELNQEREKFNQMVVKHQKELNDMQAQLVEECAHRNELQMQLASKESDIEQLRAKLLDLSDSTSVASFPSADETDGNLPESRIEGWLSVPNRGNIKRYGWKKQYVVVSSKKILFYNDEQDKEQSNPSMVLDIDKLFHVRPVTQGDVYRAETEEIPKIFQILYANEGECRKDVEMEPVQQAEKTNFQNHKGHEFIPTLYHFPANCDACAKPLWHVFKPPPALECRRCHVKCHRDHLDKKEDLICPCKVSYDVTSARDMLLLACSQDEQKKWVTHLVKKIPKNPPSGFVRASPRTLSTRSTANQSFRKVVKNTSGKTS
Rho kinase 2 (ROCK-II), sequence (O75116 whole entry): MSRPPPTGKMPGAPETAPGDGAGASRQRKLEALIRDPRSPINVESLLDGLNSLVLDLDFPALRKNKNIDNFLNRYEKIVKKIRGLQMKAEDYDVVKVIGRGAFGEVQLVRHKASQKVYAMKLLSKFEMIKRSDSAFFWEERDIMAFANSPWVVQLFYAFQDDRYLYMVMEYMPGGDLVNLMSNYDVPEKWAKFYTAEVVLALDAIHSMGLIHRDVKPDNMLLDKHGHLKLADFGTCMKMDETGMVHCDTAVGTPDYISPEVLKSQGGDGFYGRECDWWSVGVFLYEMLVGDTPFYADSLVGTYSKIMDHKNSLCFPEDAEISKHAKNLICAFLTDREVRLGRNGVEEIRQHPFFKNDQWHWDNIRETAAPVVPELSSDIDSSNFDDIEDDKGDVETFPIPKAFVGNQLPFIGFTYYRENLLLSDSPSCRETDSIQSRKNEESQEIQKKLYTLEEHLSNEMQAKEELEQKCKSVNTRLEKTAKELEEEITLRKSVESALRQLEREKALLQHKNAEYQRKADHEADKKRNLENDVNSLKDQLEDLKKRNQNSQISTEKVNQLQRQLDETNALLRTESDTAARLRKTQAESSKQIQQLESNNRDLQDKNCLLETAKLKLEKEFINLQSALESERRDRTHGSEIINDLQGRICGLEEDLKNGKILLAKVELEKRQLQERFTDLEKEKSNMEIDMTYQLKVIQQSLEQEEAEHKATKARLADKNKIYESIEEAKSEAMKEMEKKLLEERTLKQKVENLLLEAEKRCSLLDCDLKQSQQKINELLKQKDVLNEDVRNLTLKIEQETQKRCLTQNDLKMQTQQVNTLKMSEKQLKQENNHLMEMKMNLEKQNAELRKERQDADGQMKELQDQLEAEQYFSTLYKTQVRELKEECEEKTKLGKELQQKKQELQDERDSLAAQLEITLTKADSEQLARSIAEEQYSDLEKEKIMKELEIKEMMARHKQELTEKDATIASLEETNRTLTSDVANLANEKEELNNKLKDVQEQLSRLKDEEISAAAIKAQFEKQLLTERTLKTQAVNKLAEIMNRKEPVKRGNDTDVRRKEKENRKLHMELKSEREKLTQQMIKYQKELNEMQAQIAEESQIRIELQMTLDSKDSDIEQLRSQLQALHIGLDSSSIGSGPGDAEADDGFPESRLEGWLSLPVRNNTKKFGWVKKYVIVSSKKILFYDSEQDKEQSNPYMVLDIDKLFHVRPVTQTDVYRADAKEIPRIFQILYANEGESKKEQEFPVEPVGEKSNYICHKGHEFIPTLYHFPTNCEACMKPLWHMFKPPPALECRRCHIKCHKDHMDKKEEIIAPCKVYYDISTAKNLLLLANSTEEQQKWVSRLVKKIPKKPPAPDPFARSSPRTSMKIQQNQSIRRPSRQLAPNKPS

With `Cc1ccc(CN2CCN(C(=O)C(N)Cc3ccc(Oc4ccnc5[nH]cc(C)c45)c(F)c3)CC2)cc1` (stereo not shown) [Example 72, 2-amino-3-(3-fluoro-4-((3-methyl-1H-pyrrolo[2,3-b]pyridin-4-yl)oxy)phenyl)-1-(4-(4-methylbenzyl)piperazin-1-yl)propan-1-one], the inhibitory constant (Ki) at Rho kinase 2 (ROCK-II) and at Rho kinase 1 (ROCK-I) was less than 3 nM each time.

In the case of `Cc1c[nH]c2nccc(Oc3ccc(C[C@H](N)C(=O)N4C[C@@H]5C[C@H]4CN5Cc4ccccc4)cc3F)c12` [Example 24, (S)-2-amino-1-((1S,4S)-5-benzyl-2,5-diazabicyclo[2.2.1]heptan-2-yl)-3-(3-fluoro-4-((3-methyl-1H-pyrrolo[2,3-b]pyridin-4-yl)oxy)phenyl)propan-1-one], the Ki at Rho kinase 2 (ROCK-II) and at Rho kinase 1 (ROCK-I) was less than 3 nM throughout.

In the case of `Cc1c[nH]c2nccc(Oc3ccc(C[C@H](N)C(=O)N4CCC[C@@H](N(C)C)C4)cc3F)c12` [Example 50, (S)-2-amino-1-((R)-3-(dimethylamino)piperidin-1-yl)-3-(3-fluoro-4-((3-methyl-1H-pyrrolo[2,3-b]pyridin-4-yl)oxy)phenyl)propan-1-one], the inhibitory constant (Ki) at Rho kinase 2 (ROCK-II) and on Rho kinase 1 (ROCK-I) was less than 3 nM each time.

In the case of `Cc1c[nH]c2nccc(Oc3ccc(C[C@H](N)C(=O)N4CC5(CNC5)C4)cc3F)c12` [Example 29, (S)-2-amino-3-(3-fluoro-4-((3-methyl-1H-pyrrolo[2,3-b]pyridin-4-yl)oxy)phenyl)-1-(2,6-diazaspiro[3.3]heptan-2-yl)propan-1-one], the inhibition constant (Ki) on Rho kinase 2 (ROCK-II) and at Rho kinase 1 (ROCK-I) was less than 3 nM in each case.

Turning to `Cc1c[nH]c2nccc(Oc3ccc(CC(N)C(=O)NCC4CCN(Cc5ccccc5)CC4)cc3F)c12` (stereo not shown) [Example 82, 2-amino-N-((1-benzylpiperidin-4-yl)methyl)-3-(3-fluoro-4-((3-methyl-1H-pyrrolo[2,3-b]pyridin-4-yl)oxy)phenyl)propanamide], the Ki on Rho kinase 2 (ROCK-II) and at Rho kinase 1 (ROCK-I) was less than 3 nM in each case.

For the compound `N[C@@H](Cc1ccc(Oc2ccnc3[nH]ccc23)cc1)C(=O)Nc1nccs1` [Example 105, (S)-3-(4-((1H-pyrrolo[2,3-b]pyridin-4-yl)oxy)phenyl)-2-amino-N-(thiazol-2-yl)propanamide], the Ki at Rho kinase 2 (ROCK-II) and on Rho kinase 1 (ROCK-I) was 3 to 30 nM each time.

On to `Cc1c[nH]c2nccc(Oc3ccc(C[C@H](N)C(=O)N4CCN(Cc5cncnc5)CC4)cc3F)c12` [Example 162, (S)-2-amino-3-(3-fluoro-4-((3-methyl-1H-pyrrolo[2,3-b]pyridin-4-yl)oxy)phenyl)-1-(4-(pyrimidin-5-ylmethyl)piperazin-1-yl)propan-1-one], for which the Ki at Rho kinase 2 (ROCK-II) and on Rho kinase 1 (ROCK-I) was less than 3 nM in each case.

As for `N#Cc1c[nH]c2nccc(Oc3ccc(C[C@H](N)C(=O)N4CCN(Cc5ccccn5)CC4)cc3F)c12` [Example 224, (S)-4-(4-(2-amino-3-oxo-3-(4-(pyridin-2-ylmethyl)piperazin-1-yl)propyl)-2-fluorophenoxy)-1H-pyrrolo[2,3-b]pyridine-3-carbonitrile], the inhibition constant (Ki) at Rho kinase 2 (ROCK-II) and on Rho kinase 1 (ROCK-I) was less than 3 nM each time.

On to `N[C@@H](Cc1ccc(Oc2ccnc3[nH]cc(Br)c23)c(F)c1)C(=O)N1CCN(Cc2ccccc2)CC1` [Example 187, (S)-2-amino-1-(4-benzylpiperazin-1-yl)-3-(4-((3-bromo-1H-pyrrolo[2,3-b]pyridin-4-yl)oxy)-3-fluorophenyl)propan-1-one], for which the Ki on Rho kinase 2 (ROCK-II) and on Rho kinase 1 (ROCK-I) was less than 3 nM each time.

Take `CC(N)(Cc1ccc(Oc2ccnc3[nH]ccc23)cc1)C(=O)NC1CCCCC1` (stereo not shown) [Example 150, 3-(4-((1H-pyrrolo[2,3-b]pyridin-4-yl)oxy)phenyl)-2-amino-N-cyclohexyl-2-methylpropanamide]: the inhibitory constant (Ki) at Rho kinase 2 (ROCK-II) and on Rho kinase 1 (ROCK-I) was 3 to 30 nM throughout.

Regarding `N[C@@H](Cc1ccc(Oc2ccnc3[nH]cc(Br)c23)cc1)C(=O)NC1CCOCC1` [Example 189, (S)-2-amino-3-(4-((3-bromo-1H-pyrrolo[2,3-b]pyridin-4-yl)oxy)phenyl)-N-(tetrahydro-2H-pyran-4-yl)propanamide], the inhibition constant (Ki) on Rho kinase 2 (ROCK-II) and at Rho kinase 1 (ROCK-I) was less than 3 nM throughout.
